Here are results for 24 molecules from article PMC12155096 (International Journal of Molecular Sciences, 2025).

Data set [1] concerns the target human CYP2D6 (Homo sapiens, UniProt P10635).
Data set [2] deals with T1, human CYP1A2 (Homo sapiens, UniProt P05177).
T1 sequence (P05177 1-516): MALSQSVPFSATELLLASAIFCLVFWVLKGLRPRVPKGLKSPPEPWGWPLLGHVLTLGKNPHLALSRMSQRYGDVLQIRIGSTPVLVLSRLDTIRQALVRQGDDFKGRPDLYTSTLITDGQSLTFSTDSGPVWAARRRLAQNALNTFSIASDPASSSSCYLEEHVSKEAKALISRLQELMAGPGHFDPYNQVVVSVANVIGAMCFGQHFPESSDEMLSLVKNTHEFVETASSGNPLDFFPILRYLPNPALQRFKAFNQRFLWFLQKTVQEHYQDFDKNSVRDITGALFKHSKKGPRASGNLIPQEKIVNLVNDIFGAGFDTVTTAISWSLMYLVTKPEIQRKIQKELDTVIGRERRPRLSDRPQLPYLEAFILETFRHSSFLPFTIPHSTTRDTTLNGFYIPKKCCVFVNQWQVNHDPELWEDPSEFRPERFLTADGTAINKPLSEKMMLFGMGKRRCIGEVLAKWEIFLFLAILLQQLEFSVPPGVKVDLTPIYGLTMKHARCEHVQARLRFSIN
The experiment in a line: biochemical.

For data set [3], the target named is T2, human CYP2C19 (Homo sapiens, UniProt P33261). Put plainly: biochemical.
T2 sequence (P33261 whole entry): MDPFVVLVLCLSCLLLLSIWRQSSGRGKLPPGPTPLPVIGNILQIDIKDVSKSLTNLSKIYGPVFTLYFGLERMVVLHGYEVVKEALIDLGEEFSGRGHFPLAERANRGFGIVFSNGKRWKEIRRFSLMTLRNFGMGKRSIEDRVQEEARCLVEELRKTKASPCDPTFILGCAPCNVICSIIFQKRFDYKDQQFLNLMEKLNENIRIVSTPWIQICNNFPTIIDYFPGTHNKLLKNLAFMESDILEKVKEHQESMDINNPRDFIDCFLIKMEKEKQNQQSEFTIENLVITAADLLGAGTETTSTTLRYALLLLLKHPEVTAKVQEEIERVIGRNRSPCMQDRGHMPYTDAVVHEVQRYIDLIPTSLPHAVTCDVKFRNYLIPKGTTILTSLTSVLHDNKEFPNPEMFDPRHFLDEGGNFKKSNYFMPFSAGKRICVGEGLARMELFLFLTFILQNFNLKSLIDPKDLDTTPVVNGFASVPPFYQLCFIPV
The target in data set [4] is CYP3A4 (Homo sapiens, UniProt P08684). Put plainly: biochemical.
Sequence of CYP3A4 (P08684 whole entry): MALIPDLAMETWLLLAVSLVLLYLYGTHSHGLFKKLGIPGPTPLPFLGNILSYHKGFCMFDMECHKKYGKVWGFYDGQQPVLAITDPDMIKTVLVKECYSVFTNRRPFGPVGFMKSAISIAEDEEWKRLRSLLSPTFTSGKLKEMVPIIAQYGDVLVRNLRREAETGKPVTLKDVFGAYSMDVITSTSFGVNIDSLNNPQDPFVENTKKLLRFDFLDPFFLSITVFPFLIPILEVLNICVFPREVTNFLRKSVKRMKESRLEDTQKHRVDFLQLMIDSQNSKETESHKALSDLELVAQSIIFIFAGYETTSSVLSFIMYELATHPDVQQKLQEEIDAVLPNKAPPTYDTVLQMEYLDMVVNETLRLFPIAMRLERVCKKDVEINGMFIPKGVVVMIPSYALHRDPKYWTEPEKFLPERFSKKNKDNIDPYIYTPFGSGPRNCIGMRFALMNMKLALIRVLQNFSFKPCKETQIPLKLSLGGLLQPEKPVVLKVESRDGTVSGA
In data set [5] the target is T3, human CYP2C9 (Homo sapiens, UniProt P11712). The experiment in a line: biochemical.
T3 sequence (P11712 whole entry): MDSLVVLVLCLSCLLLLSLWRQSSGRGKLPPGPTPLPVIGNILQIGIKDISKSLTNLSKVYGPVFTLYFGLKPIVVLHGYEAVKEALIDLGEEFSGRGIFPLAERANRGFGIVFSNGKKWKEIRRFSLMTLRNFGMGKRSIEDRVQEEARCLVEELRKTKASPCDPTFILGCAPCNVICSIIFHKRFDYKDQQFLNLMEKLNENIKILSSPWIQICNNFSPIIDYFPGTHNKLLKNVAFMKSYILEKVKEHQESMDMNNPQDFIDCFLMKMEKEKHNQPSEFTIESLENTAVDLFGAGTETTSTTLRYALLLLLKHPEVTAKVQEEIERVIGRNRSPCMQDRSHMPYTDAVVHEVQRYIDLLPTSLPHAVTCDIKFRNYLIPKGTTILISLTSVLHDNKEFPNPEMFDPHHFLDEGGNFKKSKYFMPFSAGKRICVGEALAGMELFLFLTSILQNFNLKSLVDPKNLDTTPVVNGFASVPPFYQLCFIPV
Data set [6] concerns the target T2, human CYP2C19.
In data set [7] the target is T1, human CYP1A2.
Data set [8] concerns the target T3, human CYP2C9.
[9] abbreviates: CYP1A2 AC50 (half-maximal activity concentration).
Setting [10] is: CYP2C19 AC50 (half-maximal activity concentration).
The mark [11] stands for this setting: CYP3A4 AC50 (half-maximal activity concentration).
Setting [12] is: CYP2C9 AC50 (half-maximal activity concentration).

Read-outs that look alike come from different tables or passages of the source.

Sequence of human CYP2D6 (P10635 whole entry): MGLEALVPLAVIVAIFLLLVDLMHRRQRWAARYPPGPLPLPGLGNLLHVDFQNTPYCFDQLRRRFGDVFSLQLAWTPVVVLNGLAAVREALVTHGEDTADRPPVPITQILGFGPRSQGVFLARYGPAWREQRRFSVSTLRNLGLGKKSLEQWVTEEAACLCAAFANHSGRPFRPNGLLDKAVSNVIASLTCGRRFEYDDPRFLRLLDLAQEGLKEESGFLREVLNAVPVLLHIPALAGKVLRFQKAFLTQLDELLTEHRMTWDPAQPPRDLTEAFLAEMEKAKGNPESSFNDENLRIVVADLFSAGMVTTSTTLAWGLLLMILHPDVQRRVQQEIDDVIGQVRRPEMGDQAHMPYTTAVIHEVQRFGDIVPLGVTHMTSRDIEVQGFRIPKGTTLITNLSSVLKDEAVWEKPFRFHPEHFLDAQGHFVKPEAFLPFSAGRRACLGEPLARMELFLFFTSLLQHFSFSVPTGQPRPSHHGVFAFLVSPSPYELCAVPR

Take `Oc1c(Cl)c(Cl)c(Cl)c(Cl)c1Cl` [Pentachlorophenol]: the “CYP2D6 AC50 (half-maximal activity concentration)” value (“CYP2D6 AC50” below) in data set [1] was “Inactive”. The AC50 (commonly the concentration giving half of the maximal activity seen) stood at 67.4 µM in data set [2] (setting [9]), 52.3 µM in data set [3] (setting [10]) and 54.4 µM in data set [4] (setting [11]).

On to `CCOCCOC(=O)C=Cc1ccc(OC)cc1` [Cinoxate], for which the “CYP2D6 AC50” value in data set [1] is “Inactive”. The concentration at half-maximal activity (AC50) in data set [2] (setting [9]) worked out at 7.48 µM; in data set [5] (setting [12]), 13.9 µM; in data set [3] (setting [10]), 29.2 µM; in data set [4] (setting [11]), 21.9 µM.

With `CCCCOC(=O)COc1ccc(Cl)cc1Cl` [2,4-D 1-butyl ester], the “CYP2D6 AC50” value in data set [1] is “Inactive”. Besides, the AC50 was found to be 35.7 ± 4.11 µM in data set [2], 35.6 µM in data set [5], 30.5 ± 10 µM in data set [3] and 2.69 ± 0.56 µM in data set [4].

Consider `CCCCCCCCCCCCN1CCCC1=O` [1-Dodecyl-2-pyrrolidinone], for which, in data set [6], the “CYP2C19 AC50 (half-maximal activity concentration)” value (shortened to “CYP2C19 AC50”) is “Inconclusive inhibitor”. For the same molecule, the “CYP2D6 AC50” value in data set [1] was “Inactive”. Also, the figures for the half-maximal activity concentration (AC50) in data set [2], in data set [5] and in data set [4] were 29.7 µM, 37.9 µM and 9.84 µM, respectively.

In the case of `CCCOC(=O)c1ccc(C(=O)OCCC)nc1` [Dipropyl 2,5-pyridinedicarboxylate], the “CYP2D6 AC50” value in data set [1] is “Inactive”. The AC50 in data set [2] amounted to 11.3 µM; in data set [5] it was 7.68 µM; in data set [3], 5.97 µM; in data set [4], 31.9 µM.

Turning to `CCOC(=O)CCCCCCCCC(=O)OCC` [Diethyl decanedioate], the “CYP2C19 AC50” value in data set [6] was “Inconclusive inhibitor”. Further, the “CYP2D6 AC50” value in data set [1] is listed as “Inactive”. The results for the AC50 in data set [2] (setting [9]), in data set [5] (setting [12]) and in data set [4] (setting [11]) were 35.2 µM, 42.2 µM and 26.2 µM, respectively.

Consider `O=C1OC(=O)c2c(Cl)c(Cl)c(Cl)c(Cl)c21` [Tetrachlorophthalic anhydride], for which the “CYP1A2 AC50 (half-maximal activity concentration)” value in data set [7] is “Inactive”. Besides, in data set [8], the “CYP2C9 AC50 (half-maximal activity concentration)” value is recorded as “Inactive”. For the same molecule, the “CYP2D6 AC50” value in data set [1] is “Inconclusive inhibitor”. The figures for the concentration at half-maximal activity (AC50) in data set [3] (setting [10]) and in data set [4] (setting [11]) were 89.4 µM and 34.7 µM, respectively.

Take `O=C(OCCc1ccccc1)c1ccccc1` [2-Phenylethyl benzoate]: the “CYP2D6 AC50” value in data set [1] is on record as “Inconclusive inhibitor”. Moreover, the AC50 stood at 17.1 µM in data set [2], 30.6 µM in data set [5], 13.5 µM in data set [3] and 7.51 µM in data set [4].

`CCC(C)c1cc([N+](=O)[O-])cc([N+](=O)[O-])c1O` (stereo not drawn) [Dinoseb]: the AC50 in data set [2] (setting [9]) came to 58.1 µM; in data set [3] (setting [10]) it was 76.8 µM; in data set [4] (setting [11]), 33.9 µM.

Take `O=C(O)c1cc(I)cc(I)c1I` [2,3,5-Triiodobenzoic acid]: in data set [6], the “CYP2C19 AC50” value is recorded as “Inconclusive inhibitor”. In addition, the “CYP2D6 AC50” value in data set [1] is “Inactive”. The AC50 in data set [2] (setting [9]) was found to be 57.3 µM; in data set [5] (setting [12]) it was 20.9 µM; in data set [4] (setting [11]), 75.1 µM.

Turning to `CC(C)(C)c1cc([N+](=O)[O-])cc([N+](=O)[O-])c1O` [Dinoterb], the “CYP2C19 AC50” value in data set [6] is reported as “Inconclusive inhibitor”. For the same molecule, in data set [1], the “CYP2D6 AC50” value is reported as “Inconclusive inhibitor”. Moreover, the AC50 is 48 µM in data set [2] (setting [9]), 17.8 µM in data set [5] (setting [12]) and 24.7 µM in data set [4] (setting [11]).

As for `CCOC(=O)NC(C)(C)Cc1ccc(Cl)cc1` [Cloforex], the “CYP2D6 AC50” value in data set [1] is recorded as “Inconclusive inhibitor”. Besides, the half-maximal activity concentration (AC50) came out at 7.64 µM in data set [2] (setting [9]), 15.6 µM in data set [5] (setting [12]), 5.34 µM in data set [3] (setting [10]) and 14.6 µM in data set [4] (setting [11]).

In the case of `Clc1nc(Cl)c(Cl)c(Cl)c1Cl` [Pentachloropyridine], in data set [1], the “CYP2D6 AC50” value is recorded as “Inactive”. The AC50 in data set [2] (setting [9]) was 41.8 µM; in data set [5] (setting [12]), 62.4 µM; in data set [3] (setting [10]), 61.1 µM; in data set [4] (setting [11]), 8.61 µM.

As for `c1ccc(-c2ccccc2-c2ccccc2)cc1` [o-Terphenyl], in data set [1], the “CYP2D6 AC50” value was “Inactive”. Further, the AC50 in data set [2] (setting [9]) was found to be 2.91 µM; in data set [5] (setting [12]) it was 26.5 µM; in data set [3] (setting [10]), 15.9 µM; in data set [4] (setting [11]), 24.7 µM.

Take `Oc1c(Cl)ccc(Cl)c1Cl` [2,3,6-Trichlorophenol]: the “CYP2C19 AC50” value in data set [6] is “Inconclusive inhibitor”. In data set [1], the “CYP2D6 AC50” value is “Inconclusive inhibitor”. The AC50 in data set [2] (setting [9]) turned out to be 37 µM; in data set [5] (setting [12]), 35.7 µM; in data set [4] (setting [11]), 55.4 µM.

For the molecule `Oc1nc(Cl)c(Cl)cc1Cl` [3,5,6-Trichloro-2-pyridinol], the “CYP2C19 AC50” value in data set [6] was “Inconclusive inhibitor”. The “CYP2D6 AC50” value in data set [1] is “Inconclusive inhibitor”. Also, the AC50 came out at 47.9 µM in data set [2] (setting [9]), 45.4 µM in data set [5] (setting [12]) and 65.8 µM in data set [4] (setting [11]).

Consider `Oc1c(Cl)c(Cl)cc(Cl)c1Cl` [2,3,5,6-Tetrachlorophenol], for which, in data set [6], the “CYP2C19 AC50” value is reported as “Inconclusive inhibitor”. For the same molecule, the “CYP2D6 AC50” value in data set [1] was “Inactive”. The AC50 was found to be 66.6 µM in data set [2] (setting [9]), 22.7 µM in data set [5] (setting [12]) and 58.1 µM in data set [4] (setting [11]).

In the case of `O=C(Oc1ccccc1)c1ccccc1` [Phenyl benzoate], the “CYP2C19 AC50” value in data set [6] is “Inactive”. The “CYP2D6 AC50” value in data set [1] was “Inactive”. In addition, the AC50 in data set [2] was 71 µM; in data set [5] it was 62.1 µM; in data set [4], 58.7 µM.

For the molecule `CCCCCCCCCC(C)C=O` (stereo not drawn) [2-Methylundecanal], in data set [6], the “CYP2C19 AC50” value is on record as “Inconclusive inhibitor”. Further, the “CYP2D6 AC50” value in data set [1] was “Inactive”. In addition, the AC50 in data set [2] (setting [9]) turned out to be 74.2 µM; in data set [5] (setting [12]), 65.1 µM; in data set [4] (setting [11]), 87.3 µM.

Consider `Oc1c(Br)c(Br)c(Br)c(Br)c1Br` [Pentabromophenol], for which the “CYP2C19 AC50” value in data set [6] is given as “Inconclusive”. The “CYP2D6 AC50” value in data set [1] was “Inactive”. The figures for the AC50 in data set [2] (setting [9]), in data set [5] (setting [12]) and in data set [4] (setting [11]) were 57.8 µM, 30.1 µM and 70.2 µM, respectively.

As for `Oc1c(Cl)cc(Cl)c(Cl)c1Cl` [2,3,4,6-Tetrachlorophenol], the “CYP2C19 AC50” value in data set [6] was “Inactive”. The “CYP2D6 AC50” value in data set [1] is recorded as “Inactive”. Further, the AC50 turned out to be 57.1 µM in data set [2] (setting [9]), 28.3 µM in data set [5] (setting [12]) and 67 µM in data set [4] (setting [11]).

As to `CCNc1nc(NC(C)C)nc(SC)n1` [Ametryn], the “CYP2C19 AC50” value in data set [6] is reported as “Inconclusive inhibitor”. The “CYP2D6 AC50” value in data set [1] is “Inactive”. In addition, the AC50 in data set [2] (setting [9]) was found to be 9.81 µM; in data set [5] (setting [12]), 20.8 µM; in data set [4] (setting [11]), 29.2 µM.

Regarding `Cc1ccc(C(=O)O)cc1[N+](=O)[O-]` [4-Methyl-3-nitrobenzoic acid], the “CYP1A2 AC50 (half-maximal activity concentration)” value in data set [7] was “Inconclusive inhibitor”. Also, the “CYP2C9 AC50 (half-maximal activity concentration)” value in data set [8] is listed as “Inactive”. Further, the “CYP2C19 AC50” value in data set [6] was “Inactive”. Moreover, the “CYP2D6 AC50” value in data set [1] is on record as “Inactive”. In data set [4] (setting [11]), the AC50 turned out to be 35.3 µM.

For the molecule `CC=CC(=O)N(CC)c1ccccc1C` (mixture of isomers) [Crotamiton], in data set [6], the “CYP2C19 AC50” value is recorded as “Inconclusive inhibitor”. Also, in data set [1], the “CYP2D6 AC50” value is on record as “Inactive”. In addition, the AC50 in data set [2] (setting [9]) was 31.4 µM; in data set [5] (setting [12]) it was 40.1 µM; in data set [4] (setting [11]) it was 7.51 µM.
